# Data from ChEMBL document CHEMBL1221180, “Metabolic installation of thiols into sialic acid modulates adhesion and stem cell biology” (Nat Chem Biol, 2006).
# Active and inactive are the calls of the source. The rule behind the calls is not given here.
# What was measured:
# [1] = tested on: Jurkat; assay: Modulation of cell surface thiol level in human Jurkat cells at 100 uM after 64 hrs by avidin-FITC staining-based FACS analysis; format: functional
# [2] = tested on: Jurkat; assay: Induction of human Jurkat cell adhesion assessed as spontaneous clustering of cells at 50 uM after 2 days by inverted microscopy; format: functional, cell-based
# [3] = tested on: Jurkat; assay: Induction of human Jurkat cell adhesion assessed as covalent cellular attachment to maleimide functionalized BSA-coated superaldehyde glass surface at 100 uM after 48 hrs by fluorescence microscopy; format: functional, cell-based
# [4] = tested on: Jurkat; assay: Induction of human Jurkat cell adhesion assessed as covalent cellular attachment to BSA-coated superaldehyde glass surface at 100 uM after 48 hrs by fluorescence microscopy in absence of maleimide coating; format: functional, cell-based
# [5] = tested on: Lvec; assay: Effect on human LVEC cell morphology cultured on gold-coated cover slips at 10 uM measured on day 9 post treatment by DAPI staining-based confocal microscopy; format: functional
# [6] = tested on: Jurkat; assay: Increase in cell surface thiol level in human Jurkat cells at 320 uM after 64 hrs by avidin-FITC staining-based FACS analysis relative to untreated control; format: functional
# [7] = tested on: Jurkat; assay: Increase in cell surface thiol level in human Jurkat cells at 40 uM after 2 days by avidin-FITC staining-based FACS analysis relative to untreated control; format: functional
# [8] = tested on: Jurkat; assay: Increase in cell surface thiol level in human Jurkat cells at 10 uM after 64 hrs by avidin-FITC staining-based FACS analysis relative to untreated control; format: functional
# [9] = tested on: Jurkat; assay: Increase in cell surface thiol level in human Jurkat cells at 160 uM after 64 hrs by avidin-FITC staining-based FACS analysis relative to untreated control; format: functional
# [10] = tested on: Jurkat; assay: Increase in N-thioglycolylneuraminic acid level in human Jurkat cells at 10 uM after 2 hrs by avidin-FITC staining-based FACS analysis in presence of disulfide reducing agent TCEP relative to untreated control; format: functional
# [11] = tested on: Jurkat; assay: Increase in N-thioglycolylneuraminic acid level in human Jurkat cells at 10 uM after 2 hrs by avidin-FITC staining-based FACS analysis in absence of disulfide reducing agent TCEP relative to untreated control; format: functional
# [12] = tested on: Jurkat; assay: Cytotoxicity against human Jurkat cells at 100 uM after 48 hrs; format: cell-based
# [13] = tested on: Lvec; assay: Increase in N-thioglycolylneuraminic acid level in human LVEC at 10 uM after 7 days by avidin-FITC staining-based FACS analysis relative to untreated control; format: functional
# [14] = tested on: Lvec; assay: Increase in N-thioglycolylneuraminic acid level in human LVEC after 7 days by avidin-FITC staining-based FACS analysis relative to untreated control; format: functional, cell-based
# [15] = tested on: Lvec; assay: Increase in N-thioglycolylneuraminic acid level in human LVEC at 10 uM after 3 days by avidin-FITC staining-based FACS analysis; format: functional, cell-based
# [16] = Induction of human LVEC cell differentiation into neural cell lineage cultured on gold-coated cover slips assessed as effect on cytoskeleton distribution at 10 uM measured on day 9 post treatment by DAPI staining-based confocal microscopy; format: functional
# [17] = Decrease in human LVEC cell proliferation at 10 uM for 3 days followed by second treatment of 50 uM on day 4 measured on day 9 by nestin immunostaining; format: cell-based; settings: 72 h
# [18] = tested on: Lvec; assay: Increase in beta-casein expression in human LVEC cultured on gold-coated cover slips at 10 uM after 13 days by oregon green 488 phalloidin and DAPI staining; format: functional, cell-based
# [19] = tested on: Lvec; assay: Translocation of beta-casein into nucleus of human LVEC cultured on gold-coated cover slips at 10 uM after 13 days by oregon green 488 phalloidin and DAPI staining; format: functional, cell-based
# [20] = tested on: Lvec; assay: Mild increase in beta-casein expression in human LVEC cultured on glass surface at 10 uM after 13 days by oregon green 488 phalloidin and DAPI staining; format: functional, cell-based
structure (smiles),measurement,setting,value
CC(=O)OCC(=O)N[C@@H]1[C@@H](OC(C)=O)O[C@H](COC(C)=O)[C@@H](OC(C)=O)[C@@H]1OC(C)=O,Activity,[1],inactive
same,Activity,[2],Active
same,Activity,[3],Active
same,Activity,[4],inactive
same,Activity,[5],inactive
CC(=O)CCC(=O)N[C@@H]1C(OC(C)=O)O[C@H](COC(C)=O)[C@@H](OC(C)=O)[C@@H]1OC(C)=O (stereo partly specified),fold change (FC),[6],34
CC(=O)OC[C@H]1O[C@H](OC(C)=O)[C@@H](NC(=O)CSC(C)=O)[C@@H](OC(C)=O)[C@@H]1OC(C)=O,fold change (FC),[7],14
same,fold change (FC),[8],19
same,fold change (FC),[9],40
same,fold change (FC),[6],34
same,fold change (FC),[10],120
same,fold change (FC),[11],13
same,Activity,[2],Active
same,Activity,[3],Active
same,Activity,[4],inactive
same,Activity,[12],Non-toxic
same,fold change (FC),[13],15
same,Activity,[14],Dose-dependent effect
same,Activity,[15],Active
same,Activity,[5],Active
same,Activity,[16],Active
same,Activity,[17],Toxic
same,Activity,[18],Active
same,Activity,[19],Active
same,Activity,[20],Active
CC(=O)N[C@@H]1C(OC(C)=O)O[C@H](COC(C)=O)[C@@H](OC(C)=O)[C@@H]1OC(C)=O (stereo partly specified),fold change (FC),[6],34
